Assay results: patent US7989457B2 (Eli Lilly and Company, priority 2004, dated 2011)

Molecular target: cloned human glucagon receptor (Homo sapiens, UniProt P47871)
Assay: Glucagon Receptor (hGlucR) Binding Assay
Procedure: This plasmid DNA was transfected into 293 HEK cells and selec ted with 200 ug/mL Hygromycin.
Crude plasma membranes are prepared using cells from suspension culture. The cells are lysed on ice in hypotonic buffer containing 25 mM Tris HCL, pH 7.5, 1 mM MgCl2, DNAsel, 20 u/mL, and Roche Complete Inhibitors-without EDTA. The cell suspension is homogenized with a glass dounce homogenizer using a Teflon pestle for 25 strokes. The homogenate is centrifuged at 4° C. at 1800×g for 15 mins. The supernate is collected and the pellet is resuspended in hypotonic buffer and rehomogenized. The mixture is centrifuged at 1800×g for 15 mins. The second supernate is combined with the first supernate. The combined supernates are recentrifuged at 1800×g for 15 mins to clarify. The clarified supernate is transferred to high speed tubes and centrifuged at 25000×g for 30 minutes at 4° C. The membrane pellet is resuspended in homogenization buffer and stored as frozen aliquots at −80° C. freezer until needed.
The specific activity is 2200 Ci/mmol.
The binding buffer contains 25 mM Hepes, pH 7.4, 2.5 mM CaCl2, 1 mM MgCl2, 0.1% fatty acid free BSA, (ICN), 0.003% tween-20, and Roche Complete Inhibitors without EDTA. […] Test compounds are dissolved in DMSO and serially diluted in DMSO. […] Plates are read with a MicroBeta after 14 hours of settling time at room temp. […]

cloned human glucagon receptor, sequence (P47871 26-477): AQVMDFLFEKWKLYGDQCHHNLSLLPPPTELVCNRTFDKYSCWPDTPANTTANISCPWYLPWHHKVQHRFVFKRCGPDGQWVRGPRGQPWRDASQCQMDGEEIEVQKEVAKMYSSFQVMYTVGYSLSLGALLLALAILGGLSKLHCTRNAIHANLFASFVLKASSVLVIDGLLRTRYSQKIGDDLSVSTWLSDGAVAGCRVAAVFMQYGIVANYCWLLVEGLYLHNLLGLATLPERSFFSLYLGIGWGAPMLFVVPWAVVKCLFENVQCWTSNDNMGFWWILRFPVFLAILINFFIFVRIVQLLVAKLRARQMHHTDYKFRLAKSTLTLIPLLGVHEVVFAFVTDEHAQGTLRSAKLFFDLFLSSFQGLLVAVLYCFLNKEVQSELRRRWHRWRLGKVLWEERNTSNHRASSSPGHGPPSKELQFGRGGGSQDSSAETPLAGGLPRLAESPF

Ki | Structure (SMILES)
951 nM | CCC(COc1ccc(C(=O)NCCC(=O)O)cc1)c1ccc(-c2ccc(C(F)(F)F)cc2)cc1 (racemic)
801 nM | CC(Oc1ccc(C(=O)NCCC(=O)O)cc1)c1ccc(-c2ccc(C(F)(F)F)cc2)nc1 (racemic)
